According to patent publication US20140322315A1, “CYSTEAMINE AND/OR CYSTAMINE FOR TREATING ISCHEMIC INJURY” (The Regents of the University of California, priority 2011, published 2014):
Several values for one entry are separate records, joined by “and”; a condition that tells them apart may be missing. Identical values can stand only once. Entries after “also recorded” stand apart in the source; their conditions may differ.

Columns and labels:
[1] = design: species or system mice (C57BL/6); conditions: mouse, in vivo
adiponectin multimers [2] = biological target: T1, adiponectin multimers (Homo sapiens, UniProt Q15848); assay: Lean control / healthy subjects' serum incubated 1 hour with 90 μM cysteamine, adiponectin multimers; format: biochemical
T1 construct: from tissue; host or cells: human serum (pretreatment NAFLD subjects; adults without NAFLD)
T1 sequence (Q15848 19-244): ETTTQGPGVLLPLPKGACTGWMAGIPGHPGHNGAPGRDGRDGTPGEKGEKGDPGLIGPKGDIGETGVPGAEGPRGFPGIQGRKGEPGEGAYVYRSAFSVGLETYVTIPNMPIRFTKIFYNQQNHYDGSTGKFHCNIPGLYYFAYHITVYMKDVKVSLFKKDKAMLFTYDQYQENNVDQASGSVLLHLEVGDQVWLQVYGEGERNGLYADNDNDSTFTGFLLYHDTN
Experimental: (§1) Total and multimeric adiponectin levels were measured in serum taken from: (1) subject with NAFLD collected at 0 and 24 wks of cysteamine therapy and again 16 wks after stopping therapy (i.e., 40 weeks); (2) pretreated 0-week subjects with NAFLD and adults without NAFLD at room temperature and at 37° C. and also after incubation with cysteamine 90 μM for 1 hour at 37° C.; and (3) pretreated 0-week subjects with NAFLD before and after incubation with cysteamine at varying concentrations (15, 30, 45, 60, 90, 120 μM) for 1 hour at 37° C. to establish dose-response profile.
(§2) Sodium dodecyl sulfate polyacrylamide gel electrophoresis (SDS-PAGE) was performed according to standard Laemmli's method. Sample buffer for non-reducing, non-heat denaturing conditions contained 3% SDS; 50 mmol/1 Tris-HCL, pH 6.8 and 20% glycerol. Proteins were separated using 3-8% Tris-Acetate Gels (Invitrogen, Carlsbad Calif.) with Tris-Acetate running buffer per manufacturer instructions. For immunoblotting, proteins were transferred to nitrocellulose membranes. Membranes were washed with Tween (Tris-buffered Saline, 0.1% […]) and incubated with monoclonal antibody (1:500 BD Transduction Laboratories, San Diego, Calif.). After washing with Tris-buffered saline with 0.1% Tween (4×5 min) membranes were incubated with L-COR secondary antibodies (LI-COR Biotechnology, Lincoln Nebr.) at 1:20,000. Adiponectin multimers were detected and quantified using the LICOR imager and software analysis program. Relative distribution of adiponectin multimers was determined by dividing band density by total density (cellular adiponectin) or by total adiponectin as determined by ELISA (Millipore, Billerica, Mass.). The percentage of adionectin multimer was then multiplied by the total adiponectin level to calculate absolute oligomer value.
In another experiment, 25 μl total sample volume (5 μl diluted serum+15 μl water+5 μl 5×LB) was incubated with or without cysteamine at 37° C.×1 hr. A control was prepared without cysteamine and incubated at room temperature for 1 hour on the bench. The preparations were then run on 2×15-well 1.5 mm 3-8% Tris-acetate gels. Primary antibody—mouse anti-adiponectin 1:500, overnight at 4° C. and secondary antibody—goat anti-mouse IR800 1:20,000.

adiponectin = assay: Serum total and multimeric adiponectin in subjects with NAFLD treated 24 weeks with EC-cysteamine; format: in vivo, human
Source text: (§3) Eleven children ≧10 years, with biopsy-proven NAFLD and an alanine aminotransferase (ALT) level ≧60 IU/L, were enrolled. They were either newly diagnosed or had not received specific therapy for NAFLD such as vitamin E or insulin-sensitizing drugs for at least 3 months before entering the study. All had undertaken standard of care lifestyle changes involving diet and exercise for more than 3 months. The study's primary outcome measure was normalization (≦40 IU/L) or 50% reduction in baseline serum ALT at 24 weeks of EC-cysteamine therapy; these subjects were deemed responders.
(§4) Subjects were treated for 24 wks and remained monitored for 24 weeks following its discontinuation. The mean EC-cysteamine dose ingested was 654 mg twice daily or 15.2 mg/kg/day (median dose 900 mg) for 24 wks.
(§5) During the pilot study blood was collected at pre-defined intervals. Serum was stored at −80° C. until time of assay. Adequate serum volumes were available in 10 of the 11 subjects with NAFLD and only up to 16 weeks post-treatment.
as §1, §2

adiponectin multimers [3] = biological target: T1, adiponectin multimers; assay: Pretreatment serum of subjects with NAFLD incubated 1 hour with cysteamine, adiponectin multimers; format: biochemical
Experimental: as §1, §2

subjects with NAFLD = assay: Pilot study of EC-cysteamine in children with NAFLD: ALT, AST, BMI, leptin, responders; format: in vivo, human; conditions: for mean AST / mean ALT: all study subjects; for mean AST: baseline 60.9 IU/L; for mean ALT: baseline 123 IU/L; for mean leptin level: responders, baseline 21.3 ng/mL
Source text: as §3, §4, §5

[4] = test system: LAD artery ligation ischemia/reperfusion; assay: Myocardial ischemia/reperfusion (LAD artery ligation) in mice: infarct area, echocardiography; format: in vivo, mice (C57BL/6); design: IA (Ischemic Area): unit not given beside the values
Experimental: To analyze ischemic damage and treatment with cysteamine a study in mice (C57BL/6-Male-12 weeks, 25 g) that are either pre-treated or naïve to cysteamine bitartrate was performed as follows.
Pre-treated animals received intra-peritoneal cysteamine, 60 mg/kg twice (120 mg/kg/day) 2 hours before surgery for LAD artery ligation. Following a 60 minute ligation period the obstruction was removed and another dose of cysteamine was given immediately at the time of reperfusion and also twice daily injections for 4 days following reperfusion. A control group received the same volumes of control IV solution injected instead of cysteamine. Acceptable volumes of blood were collected at baseline, and at predetermined time points after the ischemic insult in order to determine levels of surrogate markers of inflammation and plasma cysteamine. […] Before sacrifice, the LAD was re-occluded and Evan's Blue was injected through JVC in order to delineate the non-ischemic area. […] Echocardiography provided ventricular volume data as well as wall function. Hemodynamic studies provided muscle contractility data (specifically systolic data).
So far seven mice were studied. Four received control solution and 3 received cysteamine. […] This is a reduction of 13%.

[5] = lean control serum, 37° C. + 90 μM cysteamine, 1 hr
[6] = NAFLD serum (n=10), cysteamine 1 hour at 37° C. (45 μM in FIG. 13), P<0.0001

mean terminal weight [1]: 18.3 g
mean percentage of total adiponectin comprised of LMW after incubation (adiponectin multimers [2]; healthy subjects, 90 μM cysteamine 1 hour, before 11.1%): 18.0%
mean percentage of total adiponectin comprised of HMW after incubation (adiponectin multimers [2]; healthy subjects, 90 μM cysteamine 1 hour, before 42.9%): 42.7%
mean percentage of total adiponectin comprised of MMW after incubation (adiponectin multimers [2]; healthy subjects, 90 μM cysteamine 1 hour, before 46.0%): 39.3%
LMW adiponectin absolute level change (adiponectin multimers [2]; [5]): no significant change
MMW adiponectin absolute level change (adiponectin multimers [2]; [5]): significant decrease
HMW adiponectin level change (adiponectin multimers [3]; NAFLD pretreatment serum, cysteamine 1 hour at 37° C.): unchanged
LMW adiponectin mean percent change vs pretreatment (adiponectin multimers [3]; [6]): increase
MMW adiponectin mean percent change vs pretreatment (adiponectin multimers [3]; [6]): significant reduction
mean percentage of total adiponectin comprised of HMW after incubation (adiponectin multimers [3]; NAFLD serum, cysteamine 1 hour at 37° C., before 8.2%): 8.6%
mean percentage of total adiponectin comprised of LMW after incubation (adiponectin multimers [3]; NAFLD serum, cysteamine 1 hour at 37° C., before 28.5%): 36.7%
mean percentage of total adiponectin comprised of MMW after incubation (adiponectin multimers [3]; NAFLD serum, cysteamine 1 hour at 37° C., before 63.3%): 54.7%
SMILES: NCCS [cysteamine, Cysteamine]
body weight reduction [1]: 14%
LMW adiponectin mean percent change vs baseline (adiponectin multimers [2]; lean control/healthy serum, 90 μM cysteamine, 1 hr, P<0.005): increase; also recorded: significant percent change
MMW adiponectin mean percent change vs baseline (adiponectin multimers [2]; lean control/healthy serum, 90 μM cysteamine, 1 hr, P<0.01): reduction; also recorded: significant percent change
HMW adiponectin level change (adiponectin multimers [2]; lean control/healthy serum, 37° C. + 90 μM cysteamine, 1 hr): unchanged; also recorded: no significant change
all sub-forms (multimer forms) of adiponectin, change from baseline (adiponectin; 24 weeks of oral EC-cysteamine): increased
total adiponectin, baseline vs 40 wks (adiponectin; 40 weeks (therapy stopped at 24 weeks)): No significant difference
relative proportion of HMW in total adiponectin (adiponectin; after 24 weeks cysteamine therapy, baseline 12.2%, P=0.02): increased significantly
relative proportion of LMW in total adiponectin (adiponectin; after 24 weeks cysteamine therapy, baseline 14.1%): remained unchanged
relative proportion of MMW in total adiponectin (adiponectin; after 24 weeks cysteamine therapy, baseline 73.7%, P=0.03): decreased
total adiponectin change between 24-week and 40-week timepoints (adiponectin; after discontinuing therapy at 24 weeks, P=0.01): significant decrease
mean percent increase of total adiponectin from baseline (adiponectin; all subjects, 0-24 weeks oral EC-cysteamine, P=0.05): significantly increased
responders (ALT normalization ≦40 IU/L or 50% reduction at 24 weeks) (subjects with NAFLD; 24 weeks EC-cysteamine therapy, subjects with serum analyzed): Seven of the 10
mean AST (subjects with NAFLD; 24 weeks of treatment, P=0.001): 32 IU/L
mean ALT (subjects with NAFLD; 24 weeks of treatment, P=0.003): 55 IU/L
mean AST (subjects with NAFLD; 40 weeks (16 weeks off therapy), P=0.012): 35 IU/L
mean ALT (subjects with NAFLD; 40 weeks (16 weeks off therapy), P=0.055): 71 IU/L
mean leptin level (subjects with NAFLD; 24 weeks, P=0.04): 15.7 ng/mL
mean leptin level (subjects with NAFLD; 40 weeks): 19.5 ng/mL
IA (Ischemic Area) ([4]; MEAN of 3 mice): 7.99
IA/LV (cysteamine) (%) ([4]; MEAN of 3 mice, control 17.66%): 8.12%
IA/AAR (cysteamine) (%) ([4]; MEAN of 3 mice, control 58.57%): 33.24%
mean end diastolic volume (EDV), 24 h vs 72 h ([4]; cysteamine group, p=0.032): significant difference; also recorded: significant reduction
relative amounts of ischemic damage compared with control groups ([4]; cysteamine treated vs control): about half
IA/AAR (cysteamine) (%) ([4]; individual mice (raw data)): 38.02% and 34.78% and 26.92%
IA/LV (cysteamine) (%) ([4]; individual mice (raw data)): 12.66% and 6.24% and 5.47%
IA (Ischemic Area) ([4]; individual mice (raw data), cysteamine 60 mg/kg twice daily): 9.37 and 11.14 and 3.46
IA/AAR ratio, cysteamine vs control group ([4]; p=0.004): significant reduction; also recorded: significant difference
IA/LV ratio, cysteamine vs control group ([4]; p=0.008): significant reduction; also recorded: significant difference
percentage change in ESV between 24 h and 72 h, vs control group ([4]; p=0.039): significantly greater percentage reduction
percentage change in EDV between 24 h and 72 h, vs control group ([4]; p=0.04): significantly greater percentage reduction; also recorded: significant difference
